Experimental findings from patent US20070053841A1, “USE OF 1,1,1,2-TETRAFLUOROETHANE FOR MEASURING LUNG FUNCTION, ESPECIALLY FOR DETERMINING THE FUNCTIONAL RESIDUAL CAPACITY (FRC) OF THE LUNGS” (Drager Medical AG & Co. KG, priority 2005, published 2007) are described below.

The nature of the data set: blood-gas partition coefficient L (solubility of the gas in the blood). Type of data set: physicochemical. As to conditions: gas 1 = R 134a, gas 2 = R 227; equilibrium between gas dissolved in blood and gas phase. How it is done: The solubility of gases in the blood can be described by the blood-gas partition coefficient L, which describes the ratio of the volume percentages between gas dissolved in the blood and gas present in the gas phase. The prerequisite for this is the presence of an equilibrium with identical partial pressures of the gas in the phase in which it is dissolved in the blood and in the gas phase. Lowest possible solubility of the tracer gas in the blood is desirable for the lung function diagnostic tests and especially for the determination of the FRC, because what we wish to ultimately determine is the lung volume rather than the quantity of blood in the body. By using at least two gases with different solubilities in blood, the FRC measurement can be corrected with respect to the solubility in blood. The subscripts 1 and 2 below designate the two gases, which may stand, e.g., for R 134a and R 227. It can be assumed below, without restricting the generality, that L1>L2, so that the FRC measured with gas 1 (for example, R 134a) will be greater than that determined with gas 2 (for example, R 227). The blood volume can be determined from the difference of the FRC values: [formula] […] In case of R 134a and R 227, the coefficient L1/L2 is approx. 4, so that the measured difference in FRC is divided by 3.

SMILES strings stand for the structures.

For the compound `FCC(F)(F)F` [R 134a, 1,1,1,2-tetrafluoroethane], the “coefficient L1/L2 (ratio of blood-gas partition coefficients)” value is reported as “approx. 4”.
